These results are taken from patent publication US11078204B2, “Heterocyclic derivatives as PI3K inhibitors” (Incyte Corporation, priority 2018, dated 2021).

A word on the IC50: it is the concentration that gives 50% inhibition.

Experiment [1] addresses PI3Kδ (p110δ/p85α) Recombinant Human Protein (Homo sapiens (Human), UniProt O00329). Kind of experiment: PI3Kδ Scintillation Proximity Assay. It is filed as biochemical. The conditions noted are these: 20 μM PIP2, 2 μM ATP, 3.4 nM PI3Kδ, 120 min. From the text:
Example C. PI3Kδ Scintillation Proximity Assay
[γ-^33P]ATP (10 mCi/mL) and Wheat Germ Agglutinin (WGA) YSi SPA Scintillation Beads was purchased from Perkin Elmer (Waltham, Mass.). Lipid kinase substrate, D-myo-Phosphatidylinositol 4,5-bisphosphate (PtdInS(4,5)P2)D (+)-sn-1,2-di-O-octanoylglyceryl, 3-O-phospho linked (PIP2), CAS 204858-53-7, was purchased from Echelon Biosciences (Salt Lake City, Utah). PI3Kδ (p110δ/p85α) Recombinant Human Protein was purchased from Eurofins (St Charles, Mo.). ATP, MgCl2, DTT, EDTA, MOPS and CHAPS were purchased from Sigma Aldrich (St. Louis, Mo.).
(§1) The kinase reaction was conducted in polystyrene 384-well Greiner Bio-one white plate from Thermo Fisher Scientific in a final volume of 25 μL. Inhibitors were first diluted serially in DMSO and added to the plate wells before the addition of other reaction components. The final concentration of DMSO in the assay was 2%. The PI3Kδ assay was carried out at room temperature in 20 mM MOPS, pH 6.7, 10 mM MgCl2, 5 mM DTT and CHAPS 0.03%. Reactions were initiated by the addition of ATP, the final reaction mixture consisted of 20 μM PIP2, 2 μM ATP, 0.5 μCi [γ-^33P]ATP, 3.4 nM PI3Kδ. Reactions were incubated for 120 min and terminated by the addition of 40 μL SPA beads suspended in quench buffer: 163 mM potassium phosphate pH 7.8, 20% glycerol, 25 mM EDTA. The final concentration of SPA beads is 1.0 mg/mL. After the plate sealing, plates were shaken overnight at room temperature and centrifuged at 1500 rpm for 10 min, the radioactivity of the product was determined by scintillation counting on Topcount (PerkinElmer). IC50 determination was performed by fitting the curve of percent of the solvent control activity versus the log of the inhibitor concentration using the GraphPad Prism 6.0 software.
Background: SPA uses beads or plates that emit light when radiolabelled molecules are held near them.

For experiment [2], the target named is PI3Kγ (p110γ) Recombinant Human Protein (Homo sapiens (Human), UniProt P48736). Kind of experiment: PI3K-γ Scintillation Proximity Assay. It is filed as biochemical. As to conditions: 20 μM PIP2, 2 μM ATP, 13 nM PI3Kγ, 120 min.
From the text: Example B. PI3K-γ Scintillation Proximity Assay
[γ-^33P]ATP (10 mCi/mL) and Wheat Germ Agglutinin (WGA) YSi SPA Scintillation Beads was purchased from Perkin Elmer (Waltham, Mass.). Lipid kinase substrate, D-myo-Phosphatidylinositol 4,5-bisphosphate (PtdInS(4,5)P2)D (+)-sn-1,2-di-O-octanoylglyceryl, 3-O-phospho linked (PIP2), CAS 204858-53-7, was purchased from Echelon Biosciences (Salt Lake City, Utah). PI3Kγ (p110γ) Recombinant Human Protein was purchased from Life technology (Grand Island, N.Y.). ATP, MgCl2, DTT, EDTA, MOPS and CHAPS were purchased from Sigma Aldrich (St. Louis, Mo.).
as §1, with “PI3Kγ” for “PI3Kδ”, “[γ-^33p]ATP, 13” for “[γ-^33P]ATP, 3.4”, “PI3Kγ.” for “PI3Kδ.”

The structures appear in SMILES notation. Where a name gives a salt, the structure may show the parent alone. Bounds are passed on as bounds.

Sequence of PI3Kγ (p110γ) Recombinant Human Protein (P48736 whole entry): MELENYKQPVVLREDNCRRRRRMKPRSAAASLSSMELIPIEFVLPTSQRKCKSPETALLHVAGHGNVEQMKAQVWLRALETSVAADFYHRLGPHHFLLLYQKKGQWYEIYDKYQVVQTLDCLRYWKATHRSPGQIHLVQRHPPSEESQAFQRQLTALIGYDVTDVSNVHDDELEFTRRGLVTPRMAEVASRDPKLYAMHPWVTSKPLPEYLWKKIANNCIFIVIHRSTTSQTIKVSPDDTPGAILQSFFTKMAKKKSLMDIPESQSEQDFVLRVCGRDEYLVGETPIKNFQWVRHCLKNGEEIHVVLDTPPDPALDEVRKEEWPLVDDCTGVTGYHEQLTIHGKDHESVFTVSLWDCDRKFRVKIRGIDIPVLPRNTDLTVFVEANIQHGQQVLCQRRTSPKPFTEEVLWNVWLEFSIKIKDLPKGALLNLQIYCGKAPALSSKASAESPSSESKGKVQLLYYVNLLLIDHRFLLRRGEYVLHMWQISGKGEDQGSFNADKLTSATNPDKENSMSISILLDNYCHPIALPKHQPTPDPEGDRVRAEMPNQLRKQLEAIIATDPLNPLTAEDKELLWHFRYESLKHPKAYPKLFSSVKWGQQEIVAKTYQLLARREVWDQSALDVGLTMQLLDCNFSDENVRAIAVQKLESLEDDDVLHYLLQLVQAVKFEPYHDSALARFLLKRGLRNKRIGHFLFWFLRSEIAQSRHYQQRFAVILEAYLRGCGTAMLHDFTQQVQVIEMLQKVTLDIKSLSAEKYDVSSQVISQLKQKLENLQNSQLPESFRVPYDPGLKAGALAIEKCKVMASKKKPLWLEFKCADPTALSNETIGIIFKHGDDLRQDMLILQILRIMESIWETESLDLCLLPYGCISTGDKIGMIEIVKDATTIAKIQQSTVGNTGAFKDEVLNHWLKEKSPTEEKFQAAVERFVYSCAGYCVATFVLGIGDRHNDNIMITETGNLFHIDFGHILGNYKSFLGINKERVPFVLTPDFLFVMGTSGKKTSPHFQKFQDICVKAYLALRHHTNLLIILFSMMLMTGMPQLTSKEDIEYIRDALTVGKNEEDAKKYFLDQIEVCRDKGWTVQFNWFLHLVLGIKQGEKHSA
Sequence of PI3Kδ (p110δ/p85α) Recombinant Human Protein (O00329 whole entry): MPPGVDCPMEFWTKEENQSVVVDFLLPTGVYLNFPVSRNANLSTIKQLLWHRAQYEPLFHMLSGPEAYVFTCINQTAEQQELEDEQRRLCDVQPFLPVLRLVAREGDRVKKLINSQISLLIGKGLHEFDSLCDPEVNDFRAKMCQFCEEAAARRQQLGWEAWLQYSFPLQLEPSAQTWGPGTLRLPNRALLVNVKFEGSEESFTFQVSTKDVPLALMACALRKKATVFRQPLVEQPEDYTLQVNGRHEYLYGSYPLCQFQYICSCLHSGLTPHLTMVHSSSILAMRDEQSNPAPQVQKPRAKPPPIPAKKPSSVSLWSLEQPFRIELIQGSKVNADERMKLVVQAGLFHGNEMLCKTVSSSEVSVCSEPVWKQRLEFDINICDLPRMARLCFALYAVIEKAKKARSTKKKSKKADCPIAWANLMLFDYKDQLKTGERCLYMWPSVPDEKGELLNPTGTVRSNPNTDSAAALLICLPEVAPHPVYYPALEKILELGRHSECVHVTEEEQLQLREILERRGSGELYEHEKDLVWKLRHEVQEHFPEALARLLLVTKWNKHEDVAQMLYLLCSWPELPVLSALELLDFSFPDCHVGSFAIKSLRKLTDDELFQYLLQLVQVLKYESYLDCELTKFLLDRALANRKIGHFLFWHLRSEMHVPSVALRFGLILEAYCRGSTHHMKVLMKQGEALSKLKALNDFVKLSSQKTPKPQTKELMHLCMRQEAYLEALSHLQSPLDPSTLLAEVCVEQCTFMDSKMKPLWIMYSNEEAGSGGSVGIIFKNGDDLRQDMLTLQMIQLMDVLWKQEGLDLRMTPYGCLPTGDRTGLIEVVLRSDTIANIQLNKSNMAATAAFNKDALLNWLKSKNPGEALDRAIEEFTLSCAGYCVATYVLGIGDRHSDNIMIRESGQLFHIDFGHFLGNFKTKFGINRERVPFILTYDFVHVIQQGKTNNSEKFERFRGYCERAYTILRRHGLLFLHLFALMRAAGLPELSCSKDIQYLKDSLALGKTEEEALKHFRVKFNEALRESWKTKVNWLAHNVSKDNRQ
Sequence of PI3Kδ (p110δ/p85α) Recombinant Human Protein (P27986 whole entry partner): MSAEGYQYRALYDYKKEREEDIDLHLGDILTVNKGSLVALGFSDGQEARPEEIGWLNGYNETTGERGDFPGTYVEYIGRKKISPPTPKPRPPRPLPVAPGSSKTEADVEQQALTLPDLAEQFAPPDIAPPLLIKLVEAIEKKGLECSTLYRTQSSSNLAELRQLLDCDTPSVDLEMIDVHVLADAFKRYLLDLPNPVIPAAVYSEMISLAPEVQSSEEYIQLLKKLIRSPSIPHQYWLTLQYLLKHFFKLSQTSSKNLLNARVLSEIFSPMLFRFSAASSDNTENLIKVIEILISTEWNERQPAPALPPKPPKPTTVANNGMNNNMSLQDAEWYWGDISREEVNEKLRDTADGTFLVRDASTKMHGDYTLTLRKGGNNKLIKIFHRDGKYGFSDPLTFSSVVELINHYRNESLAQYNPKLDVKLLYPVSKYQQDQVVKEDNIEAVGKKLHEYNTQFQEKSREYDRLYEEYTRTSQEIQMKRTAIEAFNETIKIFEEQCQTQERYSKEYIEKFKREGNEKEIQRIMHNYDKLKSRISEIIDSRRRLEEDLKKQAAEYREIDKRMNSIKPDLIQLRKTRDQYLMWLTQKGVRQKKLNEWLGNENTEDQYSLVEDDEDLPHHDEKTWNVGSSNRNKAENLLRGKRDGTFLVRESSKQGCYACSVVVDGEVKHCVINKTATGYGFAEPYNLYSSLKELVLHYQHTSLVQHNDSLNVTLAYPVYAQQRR

Turning to `CC(=O)NCC(C1CC1)N1Cc2cc(-c3cnc4c(N)nc(C(F)(F)F)cn34)ccc2C1=O` (racemic) [Example 44, N-(2-(5-(8-Amino-6-(trifluoromethyl)imidazo[1,2-a]pyrazin-3-yl)-1-oxoisoindolin-2-yl)-2-cyclopropylethyl)acetamide, trifluoroacetate salt], the results for the IC50 in experiment [1] and in experiment [2] were at least 2000 nM and under 2000 nM, respectively.
With `CC(c1cn2cc(-c3cnc4c(N)ncnn34)ccc2n1)C1CC1` (stereo not shown) [Example 27, 7-(2-(1-Cyclopropylethyl)imidazo[1,2-a]pyridin-6-yl)imidazo[2,1-f][1,2,4]triazin-4-amine trifluoroacetate salt], the figures for the IC50 in experiment [1] and in experiment [2] were at least 2000 nM and at most 100 nM, respectively.
On to `CC(C)c1cn2cc(-c3cnc4c(N)ncnn34)ccc2n1` [Example 22, 7-(2-isopropylimidazo[1,2-a]pyridin-6-yl)imidazo[2,1-f][1,2,4]triazin-4-amine], for which the values for the IC50 in experiment [1] and in experiment [2] were at least 2000 nM and at most 500 nM, respectively.
Regarding `CC(C1CC1)n1nc2ccc(-c3cnc4c(N)ncnn34)cc2n1` (racemic) [Example 20, 7-(2-(1-cyclopropylethyl)-2H-benzo[d][1,2,3]triazol-5-yl)imidazo[2,1-f][1,2,4]triazin-4-amine trifluoroacetate salt], the IC50 in experiment [1] was at least 2000 nM; in experiment [2], at most 500 nM.
On the same counts, the results for `CC(C)(C)OC(=O)NCC(C1CC1)N1Cc2cc(-c3cnc4c(N)nc(C(F)(F)F)cn34)ccc2C1=O` (racemic) [Example 41, tert-Butyl (2-(5-(8-amino-6-(trifluoromethyl)imidazo[1,2-a]pyrazin-3-yl)-1-oxoisoindolin-2-yl)-2-cyclopropylethyl)carbamate] are at least 2000 nM and at most 500 nM.
For `CC(C)c1cc2nc(-c3cnc4c(N)ncnn34)ccn2n1` [Example 24, 7-(2-Isopropylpyrazolo[1,5-a]pyrimidin-5-yl)imidazo[2,1-f][1,2,4]triazin-4-amine trifluoroacetate salt], in that order: at least 2000 nM and under 2000 nM.
For `NCC(C1CC1)N1Cc2cc(-c3cnc4c(N)nc(C(F)(F)F)cn34)ccc2C1=O` (racemic) [Example 42, 2-(2-Amino-1-cyclopropylethyl)-5-(8-amino-6-(trifluoromethyl)imidazo[1,2-a]pyrazin-3-yl)isoindolin-1-one, trifluoroacetate salt], in that order: at least 2000 nM and under 2000 nM.
Regarding `CCN1Cc2cc(-c3cnc4c(N)ncnn34)ccc2C1=O` [Example 10, 5-(4-Aminoimidazo[2,1-f][1,2,4]triazin-7-yl)-2-ethylisoindolin-1-one trifluoroacetate salt], the IC50 in experiment [1] is under 2000 nM; in experiment [2], at most 500 nM.
On the same counts, the results for `Cc1cc(-c2cnc3c(N)ncnn23)cc2cnn(C(C)C3CC3)c12` (stereo not shown) [Example 19, 7-(1-(1-Cyclopropylethyl)-7-methyl-1H-indazol-5-yl)imidazo[2,1-f][1,2,4]triazin-4-amine trifluoroacetate salt] are at least 2000 nM and at most 500 nM.
Consider `Nc1nc(C(F)(F)F)cn2c(-c3ccc4c(c3)CNC4=O)cnc12` [Example 4, 5-(8-Amino-6-(trifluoromethyl)imidazo[1,2-a]pyrazin-3-yl)isoindolin-1-one trifluoroacetate salt], for which the IC50 in experiment [1] and in experiment [2] was under 2000 nM throughout.
As for `CC(C1CC1)n1cc2cc(-c3cnc4c(N)ncnn34)ncc2n1` (stereo not shown) [Example 26, 7-(2-(1-Cyclopropylethyl)-2H-pyrazolo[3,4-c]pyridin-5-yl)imidazo[2,1-f][1,2,4]triazin-4-amine, trifluoroacetate], the IC50 was at least 2000 nM in experiment [1] and at most 100 nM in experiment [2].
`CNC(=O)C(C1CC1)N1Cc2cc(-c3cnc4c(N)nc(C(F)(F)F)cn34)ccc2C1=O` (racemic) [Example 45, 2-(5-(8-Amino-6-(trifluoromethyl)imidazo[1,2-a]pyrazin-3-yl)-1-oxoisoindolin-2-yl)-2-cyclopropyl-N-methylacetamide, trifluoroacetate salt]: the results for the IC50 in experiment [1] and in experiment [2] were at least 2000 nM and under 2000 nM, respectively.
On the same counts, the results for `CC(C)c1nc2ccc(-c3cnc4c(N)ncnn34)cn2n1` [Example 21, 7-(2-Isopropyl-[1,2,4]triazolo[1,5-a]pyridin-6-yl)imidazo[2,1-f][1,2,4]triazin-4-amine trifluoroacetate salt] are at least 2000 nM and at most 500 nM.
On the same counts, the results for `CS(=O)(=O)NCC(C1CC1)N1Cc2cc(-c3cnc4c(N)nc(C(F)(F)F)cn34)ccc2C1=O` (racemic) [Example 43, N-(2-(5-(8-Amino-6-(trifluoromethyl)imidazo[1,2-a]pyrazin-3-yl)-1-oxoisoindolin-2-yl)-2-cyclopropylethyl)methanesulfonamide, trifluoroacetate salt] are at least 2000 nM and under 2000 nM.
For `Nc1nc(C(F)(F)F)cn2c(-c3ccc4c(c3)CN(C(CO)C3CC3)C4=O)cnc12` (racemic) [Example 46, 5-(8-Amino-6-(trifluoromethyl)imidazo[1,2-a]pyrazin-3-yl)-2-(1-cyclopropyl-2-hydroxyethyl)isoindolin-1-one, trifluoroacetate salt], in that order: at least 2000 nM and at most 500 nM.
On to `CC(c1ccccc1)N1Cc2cc(-c3cnc4c(N)nc(C(F)(F)F)cn34)ccc2C1=O` (racemic) [Example 11, 5-(8-Amino-6-(trifluoromethyl)imidazo[1,2-a]pyrazin-3-yl)-2-(1-phenylethyl)isoindolin-1-one 1.4× trifluoroacetate salt], for which the IC50 in experiment [1] is at least 2000 nM; in experiment [2] it was at most 100 nM.
For `CC(C)c1cc2cc(-c3cnc4c(N)ncnn34)ccn2n1` [Example 23, 7-(2-Isopropylpyrazolo[1,5-a]pyridin-5-yl)imidazo[2,1-f][1,2,4]triazin-4-amine trifluoroacetate salt], in that order: at least 2000 nM and at most 500 nM.
For `Nc1nc(C(F)(F)F)cn2c(-c3ccc4c(c3)CN(C(C(=O)O)C3CC3)C4=O)cnc12` (racemic) [Example 47, 2-(5-(8-Amino-6-(trifluoromethyl)imidazo[1,2-a]pyrazin-3-yl)-1-oxoisoindolin-2-yl)-2-cyclopropylacetic acid, trifluoroacetate salt], in that order: at least 2000 nM and under 2000 nM.
For `CCN1Cc2cc(-c3cnc4c(N)nc(C(F)(F)F)cn34)ccc2C1=O` [Example 9, 5-(8-Amino-6-(trifluoromethyl)imidazo[1,2-a]pyrazin-3-yl)-2-ethylisoindolin-1-one trifluoroacetate salt], in that order: under 2000 nM and at most 500 nM.
Regarding `C[C@@H](C1CC1)N1Cc2cc(-c3cnc4c(N)nc(C(=O)N5CC(O)C5)cn34)ccc2C1=O` (single isomer, unassigned) [Example 30, trifluoroacetate salt], the IC50 in experiment [1] was at least 2000 nM; in experiment [2] it was at most 100 nM.
